The record followed here is ChEMBL document CHEMBL1201862, “PubChem BioAssay data set” (2004).

Some test systems named below: CAKI-1; HT-29; OVCAR-3; SK-OV-3; U-251; SR; NCI/ADR-RES; TK-10; Malme-3M; IGROV-1; T47D; SK-MEL-5; OVCAR-5; PC-3; UO-31; HCT-116; HCC 2998; BT-549; RPMI-8226.
Holding throughout (experiment): NCI-60 cell line screen, 48 h

Counter-ions that a name gives are not always drawn.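 Cells were grown in 96-well plates and exposed to each compound for 48 hours at five concentrations; endpoints were interpolated linearly between bracketing concentrations, or set to the highest concentration if not reached. Here, GI50 denotes the concentration required for 50% inhibition of growth.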 Calls of active or inactive are those of the source. Rule as the data show it: active = GI50 up to about 1.1 µM and inactive = higher. Where only a bound is given, the exact number is not on record here.

In the case of `COc1cc(C(CN)N(C)C)cc(OC)c1OC` (centres undefined), the GI50 in the assay with CAKI-1 is > 100 µM (inactive); in the assay on HT-29, > 100 µM (inactive); in the assay with OVCAR-3 it was > 100 µM (inactive); with SK-OV-3, > 100 µM (inactive); with U-251 it was > 100 µM (inactive); in the assay on SR, 8.49 µM (inactive). Moreover, the GI50 with NCI/ADR-RES, in the assay with TK-10, in the assay on Malme-3M, in the assay on IGROV-1, with T47D and in the assay with SK-MEL-5 was > 100 µM (inactive) throughout. For the same compound, the GI50 with OVCAR-5, with PC-3, in the assay with UO-31, in the assay with HCT-116, in the assay on HCC 2998 and in the assay with BT-549 was > 100 µM (inactive) throughout.
As to `CC(=O)OCc1ccc2c(c1)C(O)NC(=O)O2` (centres undefined), the GI50 in the assay on CAKI-1 was > 100 µM (inactive); in the assay on HT-29, > 100 µM (inactive); with OVCAR-3, 21.8 µM (inactive); in the assay on SK-OV-3, > 100 µM (inactive); in the assay with U-251, 58.6 µM (inactive); with SR, 10.4 µM (inactive). The GI50 in the assay with NCI/ADR-RES was > 100 µM (inactive); with TK-10 it was > 100 µM (inactive); in the assay on Malme-3M, 42.4 µM (inactive); in the assay with IGROV-1, > 100 µM (inactive); in the assay on RPMI-8226, 19.8 µM (inactive); with T47D, 34.6 µM (inactive). Besides, the GI50 with SK-MEL-5 was 72.9 µM (inactive); in the assay with OVCAR-5, > 100 µM (inactive); with PC-3 it was > 100 µM (inactive); in the assay with UO-31 it was > 100 µM (inactive); with HCT-116 it was 52.8 µM (inactive); with BT-549, > 100 µM (inactive).
`CCCC(=O)OC1C(CO)OC(n2cc(F)c(=O)[nH]c2=O)C1F` (centres undefined): the GI50 in the assay with CAKI-1 was 50.2 µM (inactive); in the assay on HT-29 it was 55.2 µM (inactive); with OVCAR-3 it was 54.6 µM (inactive); with SK-OV-3, > 100 µM (inactive); in the assay with U-251, 7.45 µM (inactive); with SR it was 5.41 µM (inactive). For the same compound, the GI50 is 11.3 µM (inactive) with NCI/ADR-RES; > 100 µM (inactive) in the assay on TK-10; 42.6 µM (inactive) in the assay on Malme-3M; 95.7 µM (inactive) with IGROV-1; 1.57 µM (inactive) with RPMI-8226; > 100 µM (inactive) with T47D. Besides, the GI50 in the assay on SK-MEL-5 was 53.2 µM (inactive); in the assay with OVCAR-5, > 100 µM (inactive); in the assay with PC-3, 92.3 µM (inactive); in the assay on UO-31, > 100 µM (inactive); in the assay on HCT-116, 22.3 µM (inactive); in the assay on BT-549, 11.5 µM (inactive).
`C#CCCOC(=O)CC1=C(C)/C(=C/c2ccc([S+](C)[O-])cc2)c2ccc(F)cc21` (centres undefined): the GI50 in the assay with CAKI-1 was 6.19 µM (inactive); in the assay with OVCAR-3, 15.4 µM (inactive); with SK-OV-3, 37 µM (inactive); in the assay on U-251 it was 15 µM (inactive); in the assay with SR, 3.47 µM (inactive); with NCI/ADR-RES, 13.3 µM (inactive). Further, the GI50 in the assay with TK-10 was 28.3 µM (inactive); in the assay with IGROV-1, 20.8 µM (inactive); with RPMI-8226 it was 11 µM (inactive); with T47D it was 20.1 µM (inactive); with SK-MEL-5, 12.3 µM (inactive); in the assay with OVCAR-5, 34.2 µM (inactive). Besides, the GI50 in the assay with PC-3 is 11.3 µM (inactive); in the assay with UO-31, 15.5 µM (inactive); in the assay on HCT-116, 16.8 µM (inactive); in the assay with HCC 2998 it was 10.4 µM (inactive); in the assay with BT-549, 13.8 µM (inactive).
For `O=C(O)C1(C(=O)O)CC1(C(=O)O)C(=O)O`, the GI50 in the assay on CAKI-1, in the assay on HT-29, in the assay with SK-OV-3, in the assay on U-251, in the assay with SR and in the assay with NCI/ADR-RES was > 100 µM (inactive) each time. For the same compound, the GI50 in the assay on TK-10, in the assay on Malme-3M, in the assay on IGROV-1, in the assay on T47D, in the assay on SK-MEL-5 and with OVCAR-5 was > 100 µM (inactive) each time. Further, the GI50 with PC-3, in the assay on UO-31, in the assay on HCT-116, in the assay with HCC 2998 and in the assay with BT-549 was > 100 µM (inactive) throughout.
`CN1C[C@H](C(=O)N[C@]2(C)O[C@@]3(O)[C@@H]4CCCN4C(=O)[C@H](Cc4ccccc4)N3C2=O)C=C2c3cccc4[nH]cc(c34)C[C@H]21` [ERGOTAMINE TARTRATE]: the GI50 is 26.4 µM (inactive) in the assay with CAKI-1; 23.9 µM (inactive) in the assay on HT-29; 18.3 µM (inactive) with OVCAR-3; 29.9 µM (inactive) in the assay with SK-OV-3; 18.6 µM (inactive) in the assay on U-251; 16.1 µM (inactive) in the assay on SR. In addition, the GI50 in the assay with NCI/ADR-RES is 26.3 µM (inactive); with TK-10, 17.4 µM (inactive); in the assay on Malme-3M, 18.3 µM (inactive); in the assay with IGROV-1, 20 µM (inactive); with RPMI-8226, 22.9 µM (inactive); in the assay with T47D, 33 µM (inactive). For the same compound, the GI50 in the assay on SK-MEL-5 is 14.2 µM (inactive); in the assay with OVCAR-5 it was 20.2 µM (inactive); with PC-3, 18.3 µM (inactive); in the assay on UO-31 it was 29.1 µM (inactive); with HCT-116 it was 21 µM (inactive); in the assay with BT-549, 20.9 µM (inactive).
Take `Cc1ccc2c(O)cc(-c3csc4ccccc34)nc2n1`: the GI50 in the assay with CAKI-1 is < 0.01 µM (active); in the assay on HT-29, 0.0173 µM (active); with OVCAR-3 it was < 0.01 µM (active); in the assay on SK-OV-3 it was < 0.01 µM (active); in the assay on U-251, < 0.01 µM (active); in the assay with SR it was < 0.01 µM (active). Also, the GI50 in the assay with NCI/ADR-RES is < 0.01 µM (active); with TK-10, 0.484 µM (active); in the assay with Malme-3M, < 0.01 µM (active); in the assay with IGROV-1, 0.0362 µM (active); in the assay on RPMI-8226, < 0.01 µM (active); with T47D, 21.2 µM (inactive). Further, the GI50 in the assay on SK-MEL-5 was < 0.0112 µM (active); in the assay with OVCAR-5, 0.0358 µM (active); with PC-3 it was < 0.01 µM (active); in the assay with UO-31 it was 0.0138 µM (active); in the assay with HCT-116, < 0.0104 µM (active); in the assay with BT-549, 0.0183 µM (active).
Take `CC(O)(Cc1ccccc1C#N)Cc1ccccc1C#N`: the GI50 in the assay on CAKI-1 is > 100 µM (inactive); in the assay on HT-29, > 100 µM (inactive); with OVCAR-3 it was 65.6 µM (inactive); with SK-OV-3 it was > 100 µM (inactive); in the assay with U-251 it was > 100 µM (inactive); in the assay with SR, > 100 µM (inactive). For the same compound, the GI50 was 27.9 µM (inactive) in the assay on NCI/ADR-RES; > 100 µM (inactive) in the assay with TK-10; > 100 µM (inactive) in the assay on Malme-3M; > 100 µM (inactive) in the assay on IGROV-1; 37.6 µM (inactive) with T47D; 57.3 µM (inactive) in the assay with SK-MEL-5. In addition, the GI50 with OVCAR-5 is > 100 µM (inactive); with PC-3 it was 71.3 µM (inactive); in the assay with HCT-116 it was > 100 µM (inactive); in the assay on HCC 2998, > 100 µM (inactive); in the assay on BT-549, 38.5 µM (inactive).
As to `Cc1cc2c(cc1Cl)SC(NNc1ccc([N+](=O)[O-])cc1)=NS2(=O)=O`, the GI50 with CAKI-1, in the assay with HT-29, in the assay on OVCAR-3, in the assay on SK-OV-3, in the assay on U-251 and with NCI/ADR-RES was > 10 µM (inactive) throughout. The GI50 with TK-10, in the assay with Malme-3M, in the assay on IGROV-1, in the assay with RPMI-8226, with T47D and in the assay on SK-MEL-5 was > 10 µM (inactive) throughout. In addition, the GI50 in the assay on OVCAR-5, with PC-3, with UO-31, with HCT-116, in the assay with HCC 2998 and in the assay with BT-549 was > 10 µM (inactive) in each case.
`CC(=O)Oc1ccc(OC(Oc2ccccc2)c2ccccc2)cc1` (centres undefined): the GI50 in the assay with CAKI-1 was 20 µM (inactive); with HT-29, 28.1 µM (inactive); in the assay on OVCAR-3 it was 21.2 µM (inactive); in the assay with SK-OV-3, 32.6 µM (inactive); with U-251, 17.5 µM (inactive); with SR, 14.9 µM (inactive). The GI50 is 50.9 µM (inactive) in the assay with NCI/ADR-RES; 67.3 µM (inactive) with TK-10; 23.6 µM (inactive) in the assay on Malme-3M; 32.6 µM (inactive) with IGROV-1; 39.9 µM (inactive) in the assay on T47D; 27.7 µM (inactive) in the assay on OVCAR-5. Further, the GI50 in the assay on PC-3 was 30 µM (inactive); with UO-31, 26.8 µM (inactive); in the assay with HCT-116, 24.9 µM (inactive); with HCC 2998 it was 14.7 µM (inactive); in the assay with BT-549, 27 µM (inactive).
`CC(C)CN(CC#N)CC(C)C`: the GI50 in the assay with CAKI-1, in the assay with HT-29, in the assay with OVCAR-3, in the assay on SK-OV-3, in the assay with U-251 and in the assay with NCI/ADR-RES was > 100 µM (inactive) throughout. The GI50 in the assay on TK-10 is > 100 µM (inactive); in the assay with Malme-3M, > 100 µM (inactive); in the assay on IGROV-1, > 100 µM (inactive); in the assay on RPMI-8226, 48.9 µM (inactive); in the assay on T47D, > 100 µM (inactive); with SK-MEL-5 it was > 100 µM (inactive). The GI50 with OVCAR-5, in the assay on PC-3, in the assay on UO-31, with HCT-116, with HCC 2998 and in the assay with BT-549 was > 100 µM (inactive) each time.
